Measured values taken from BindingDB's records for doi:10.1016/s0028-3908(97)00038-5 (Smithkline Beecham Pharmaceuticals, 1997).

Tests used:
[1] = target: Tyrosine-protein kinase Fyn (Homo sapiens, UniProt P06241)
[2] = target: 5-hydroxytryptamine receptor 1B (Cricetulus griseus, UniProt P46636)
[3] = target: D(2) dopamine receptor (Mesocricetus auratus, UniProt A0A1U7QAF5)
[4] = target: T1, Alpha-1B adrenergic receptor (Mesocricetus auratus, UniProt P18841)
T1 sequence (P18841 whole entry): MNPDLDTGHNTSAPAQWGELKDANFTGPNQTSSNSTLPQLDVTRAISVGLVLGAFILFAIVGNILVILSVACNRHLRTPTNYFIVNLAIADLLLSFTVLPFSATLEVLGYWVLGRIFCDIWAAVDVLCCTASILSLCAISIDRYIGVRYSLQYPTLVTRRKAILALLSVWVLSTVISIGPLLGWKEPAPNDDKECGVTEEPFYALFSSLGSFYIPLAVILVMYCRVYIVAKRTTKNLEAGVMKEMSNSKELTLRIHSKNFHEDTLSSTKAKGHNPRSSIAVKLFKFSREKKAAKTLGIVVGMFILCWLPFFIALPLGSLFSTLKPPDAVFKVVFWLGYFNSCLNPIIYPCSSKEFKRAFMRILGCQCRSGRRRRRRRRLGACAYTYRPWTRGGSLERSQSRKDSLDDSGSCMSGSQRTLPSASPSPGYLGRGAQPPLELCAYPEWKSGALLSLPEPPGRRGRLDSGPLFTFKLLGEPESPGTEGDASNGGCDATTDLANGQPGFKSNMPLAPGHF

[5] = target: 5-hydroxytryptamine receptor 4 (Sus scrofa, UniProt Q29006)
Sequence of 5-hydroxytryptamine receptor 4 (Q29006 whole entry): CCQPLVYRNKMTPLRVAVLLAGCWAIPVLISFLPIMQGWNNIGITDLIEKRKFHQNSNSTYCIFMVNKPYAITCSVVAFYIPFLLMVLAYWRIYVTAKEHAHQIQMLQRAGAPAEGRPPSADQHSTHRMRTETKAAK

[6] = target: 5-hydroxytryptamine receptor 7 (Homo sapiens, UniProt P34969)
Sequence of 5-hydroxytryptamine receptor 7 (P34969 whole entry): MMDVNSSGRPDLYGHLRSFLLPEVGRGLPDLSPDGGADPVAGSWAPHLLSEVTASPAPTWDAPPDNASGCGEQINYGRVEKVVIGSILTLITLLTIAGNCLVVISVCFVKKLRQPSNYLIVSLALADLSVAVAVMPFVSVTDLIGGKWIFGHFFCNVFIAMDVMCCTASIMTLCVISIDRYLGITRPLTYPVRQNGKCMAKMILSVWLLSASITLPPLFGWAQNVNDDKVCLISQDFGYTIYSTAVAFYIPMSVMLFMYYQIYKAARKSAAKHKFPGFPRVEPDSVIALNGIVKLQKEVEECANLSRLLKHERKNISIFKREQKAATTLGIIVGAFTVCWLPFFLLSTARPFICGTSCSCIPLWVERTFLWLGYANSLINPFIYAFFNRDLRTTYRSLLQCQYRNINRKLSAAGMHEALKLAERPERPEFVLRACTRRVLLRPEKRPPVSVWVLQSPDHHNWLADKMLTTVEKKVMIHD

[7] = target: D(3) dopamine receptor (Cricetulus griseus, UniProt A0A3Q0CXS4)
Sequence of D(3) dopamine receptor (A0A3Q0CXS4 whole entry): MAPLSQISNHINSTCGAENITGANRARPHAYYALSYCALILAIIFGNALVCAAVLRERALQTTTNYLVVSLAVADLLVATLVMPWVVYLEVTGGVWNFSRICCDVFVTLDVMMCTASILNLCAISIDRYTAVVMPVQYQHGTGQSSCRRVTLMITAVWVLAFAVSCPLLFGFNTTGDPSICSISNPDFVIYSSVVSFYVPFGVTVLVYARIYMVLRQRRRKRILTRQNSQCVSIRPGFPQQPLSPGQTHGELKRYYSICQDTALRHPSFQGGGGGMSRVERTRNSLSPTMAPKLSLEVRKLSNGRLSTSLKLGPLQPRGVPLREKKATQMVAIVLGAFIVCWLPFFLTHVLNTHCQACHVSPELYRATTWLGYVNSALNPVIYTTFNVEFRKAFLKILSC

Sequence of Tyrosine-protein kinase Fyn (P06241 whole entry): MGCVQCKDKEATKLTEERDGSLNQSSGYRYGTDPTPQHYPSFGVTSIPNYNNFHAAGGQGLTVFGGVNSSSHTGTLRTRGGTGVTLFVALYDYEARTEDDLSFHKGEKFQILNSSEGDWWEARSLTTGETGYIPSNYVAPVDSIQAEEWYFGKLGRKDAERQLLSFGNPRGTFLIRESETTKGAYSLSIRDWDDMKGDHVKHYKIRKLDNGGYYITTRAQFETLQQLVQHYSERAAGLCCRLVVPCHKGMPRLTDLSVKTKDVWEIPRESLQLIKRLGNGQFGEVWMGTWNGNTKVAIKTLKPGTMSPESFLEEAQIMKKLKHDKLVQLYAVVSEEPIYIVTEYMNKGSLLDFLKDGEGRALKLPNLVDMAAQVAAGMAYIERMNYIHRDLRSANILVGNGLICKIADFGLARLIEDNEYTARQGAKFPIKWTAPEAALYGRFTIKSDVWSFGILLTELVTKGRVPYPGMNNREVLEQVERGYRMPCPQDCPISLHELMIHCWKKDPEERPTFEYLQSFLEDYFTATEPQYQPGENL
Sequence of 5-hydroxytryptamine receptor 1B (P46636 whole entry): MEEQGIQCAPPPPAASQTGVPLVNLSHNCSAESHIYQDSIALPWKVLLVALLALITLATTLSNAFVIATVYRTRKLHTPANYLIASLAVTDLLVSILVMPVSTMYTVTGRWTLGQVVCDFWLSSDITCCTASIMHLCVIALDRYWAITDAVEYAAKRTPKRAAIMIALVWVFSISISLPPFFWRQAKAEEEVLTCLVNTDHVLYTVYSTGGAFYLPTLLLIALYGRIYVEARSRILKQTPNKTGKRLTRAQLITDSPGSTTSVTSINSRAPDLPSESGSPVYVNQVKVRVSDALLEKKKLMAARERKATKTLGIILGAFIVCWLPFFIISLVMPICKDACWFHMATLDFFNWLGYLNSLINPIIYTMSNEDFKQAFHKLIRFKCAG
Sequence of D(2) dopamine receptor (A0A1U7QAF5 whole entry): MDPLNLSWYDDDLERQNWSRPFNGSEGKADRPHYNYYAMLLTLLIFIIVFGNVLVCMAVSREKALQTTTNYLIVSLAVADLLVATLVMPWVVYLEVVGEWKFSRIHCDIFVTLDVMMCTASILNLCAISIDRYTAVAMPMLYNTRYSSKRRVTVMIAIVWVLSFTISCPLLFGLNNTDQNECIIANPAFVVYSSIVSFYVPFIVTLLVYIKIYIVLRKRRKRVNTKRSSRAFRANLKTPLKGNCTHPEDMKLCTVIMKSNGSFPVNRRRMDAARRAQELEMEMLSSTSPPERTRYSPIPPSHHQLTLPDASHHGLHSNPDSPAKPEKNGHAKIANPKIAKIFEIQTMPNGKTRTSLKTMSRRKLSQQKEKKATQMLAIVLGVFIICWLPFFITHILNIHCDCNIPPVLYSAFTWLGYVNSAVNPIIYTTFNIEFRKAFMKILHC

Work on `Cc1cc2c(cc1Cl)N(C(=O)Nc1ccc(Oc3cccnc3C)nc1)CC2` [CAS_181632-25-7] yielded a Ki [1] of 1000 nM, a Ki [2] of 398 nM and a Ki [3] of 631 nM. The Ki [4] was greater than 10000 nM, the Ki [5] was 3160 nM and the Ki [6] was 794 nM. For the same compound, the Ki [7] was 631 nM.
